Experimental data published in US8476449B2, “Radioactive iodine labeled organic compound or salt thereof” (Nihon Medi-Physics Co., Ltd., priority 2010, dated 2013).

How the values were obtained:
Assay type in all cases: binding
tau protein aggregate [1] = molecular target: T1, tau protein aggregate (Homo sapiens, UniProt P10636); assay: Competitive inhibition experiment using thioflavin S (ThS) as ligand, fluorescence spectra; parameters: made in house; host or cells: E. coli BL21; details: tau protein aggregate 0.2 μmol/L, thioflavin S 1.5 μmol/L, compound 0.1-2.7 μmol/L, excitation 440 nm
T1 sequence (P10636 1-441 isoform P10636-8): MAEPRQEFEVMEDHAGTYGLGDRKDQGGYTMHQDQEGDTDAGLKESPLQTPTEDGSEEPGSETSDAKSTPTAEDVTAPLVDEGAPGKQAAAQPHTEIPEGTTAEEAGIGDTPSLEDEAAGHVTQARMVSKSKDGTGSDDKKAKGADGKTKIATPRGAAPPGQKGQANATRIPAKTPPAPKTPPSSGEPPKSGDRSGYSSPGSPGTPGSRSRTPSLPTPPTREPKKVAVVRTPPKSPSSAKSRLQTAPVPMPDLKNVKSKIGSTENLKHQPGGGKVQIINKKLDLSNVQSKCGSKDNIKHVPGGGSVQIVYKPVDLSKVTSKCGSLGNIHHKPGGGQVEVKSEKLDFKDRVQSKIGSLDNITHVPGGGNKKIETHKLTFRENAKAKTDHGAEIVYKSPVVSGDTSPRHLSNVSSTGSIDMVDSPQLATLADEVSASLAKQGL
Method: Tau-441 expression vector (provided by Graduate School of Medicine, Osaka City University) was transferred to E. coli (BL21), culturing was carried out, and a tau protein was extracted and purified. Heparin (0.1 mg/mL) was added to the purified tau protein (1 mg/mL), and incubation in a 50 mmol/L MES buffer (pH 6.8, 100 mmol/L sodium chloride, 0.5 mmol/L EGTA) at 37° C. was carried out for 3 days, thus preparing an aggregate. Formation of the tau protein aggregate was confirmed by SDS-PAGE and thioflavin S fluorescence assay.
A mixed solution (550 μL) of the tau protein aggregate (final concentration […]) thus prepared, thioflavin S (Sigma Aldrich, final concentration 1.5 μmol/L), and compound 1, compound 2, or compound 3 solution at various concentrations (each having final concentrations of 0 to 2.7 μmol/L) was incubated for 30 minutes, and fluorescence spectra at an excitation wavelength of 440 nm were measured using a fluorescence spectrometer (RF-5300PC, Shimadzu Corporation).
In FIGS. 3 to 5, a is a fluorescence spectrum of a sample (sample I) containing only thioflavin S at 1.5 μmol/L, and b is a fluorescence spectrum of a sample (sample II) that is 0.2 μmol/L of the tau protein aggregate in sample I. In FIG. 3, c is a fluorescence spectrum of a sample that is 0.1 μmol/L of compound 1 in sample II, d is a fluorescence spectrum of a sample that is 0.3 μmol/L of compound 1 in sample II, e is a fluorescence spectrum of a sample that is 0.9 μmol/L of compound 1 in sample II, and f is a fluorescence spectrum of a sample that is 2.7 μmol/L of compound 1 in sample II. In FIG. 4, c is a fluorescence spectrum of a sample that is 0.1 μmol/L of compound 2 in sample II, d is a fluorescence spectrum of a sample that is 0.3 μmol/L of compound 2 in sample II, e is a fluorescence spectrum of a sample that is 0.9 μmol/L of compound 2 in sample II, and f is a fluorescence spectrum of a sample that is 2.7 μmol/L of compound 2 in sample II. […]

Aβ42 aggregate = molecular target: T2, Aβ42 aggregate (Homo sapiens, UniProt P05067); assay: Inhibition constant toward Aβ42 aggregate (thioflavin S competition); details: thioflavin S as ligand, read-out: Ki values (Aβ42 in Table 5)
T2 construct: Aβ (1-42) peptide; purchased Peptide Institute, Inc
T2 sequence (P05067 672-713 limits assumed): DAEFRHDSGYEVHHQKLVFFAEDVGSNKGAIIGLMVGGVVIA
Method: (§1) First, the dissociation constant (Kd) of thioflavin S used as a competitive ligand was first determined by a saturation experiment in order to calculate inhibition constants of compounds 1 to 3. That is, a mixed solution of a 10 vol % ethanol aqueous solution of thioflavin S (0.1-12.8 μmol/L) and the tau protein aggregate (final concentration 0.2 μmol/L, prepared in Example 9) or the Aβ42 aggregate (final concentration 2.2 μmol/L, prepared in Example 11) was incubated for 30 minutes, and the fluorescence intensity was measured using a fluorescence plate reader (FLEX STATION, Molecular Devices). The fluorescence intensity was measured at Ex 440 nm and Em 510 nm for the tau protein aggregate and Ex 440 nm and Em 490 nm for the Aβ42 aggregate. A saturation curve was prepared using GraphPad Prism, and the Kd value for thioflavin S was calculated.
(§2) Next, a mixed solution of a 10 volt ethanol aqueous solution of thioflavin S (1.5 μmol/L) and a test compound (0.6 nmol/L to 10 μmol/L) together with the tau protein aggregate (final concentration 0.2 μmol/L, prepared in Example 9) or the Aβ42 aggregate (final concentration 10 μg/ml, prepared in Example 11) was incubated for 30 minutes. Then, the fluorescence intensities at Ex 440 nm and Em 510 nm for the tau protein aggregate and Ex 440 nm and Em 490 nm for the Aβ42 aggregate were measured using a fluorescence plate reader (FLEX STATION, Molecular Devices). GraphPad Prism inhibition curves were prepared, and Ki values of compounds 1 to 3 were determined using the above obtained Kd value of thioflavin S.

tau protein aggregate [2] = molecular target: T1, tau protein aggregate; assay: Inhibition constant toward tau protein aggregate (thioflavin S competition); parameters: made in house; host or cells: E. coli BL21; details: for Ki ratios of Aβ42/Tau: ratio of Ki Aβ42 aggregate to Ki tau protein aggregate; for Ki: thioflavin S as ligand, tau protein aggregate, read-out: Ki values (Tau in Table 5)
Method: as §1, §2

| Ki (Aβ42 aggregate) [nM] | Ki ratios of Aβ42/Tau (tau protein aggregate [2]) | Ki (tau protein aggregate [2]) [nM] | SMILES | Inhibition of binding of tau protein aggregate to thioflavin S (fluorescence spectra) (tau protein aggregate [1]) |
| --- | --- | --- | --- | --- |
| 752 | 1.54 | 489 | CCOC(=O)CN1C(=O)/C(=C/c2ccc(-c3cccc(I)c3)o2)SC1=S [Compound 1, (Z)-ethyl-2-(5-((5-(3-iodophenyl)furan-2-yl)methylene)-4-oxo-2-thioxothiazolidin-3-yl)acetate] | inhibition of binding of a tau protein aggregate to thioflavin S |
| 864 | 5.57 | 155 | CCOC(=O)CN1C(=O)/C(=C/c2ccc(-c3cccc(I)c3)o2)NC1=S [Compound 2, (Z)-ethyl-2-(4-((5-(3-iodophenyl)furan-2-yl)methylene)-5-oxo-2-thioxoimidazolidin-1-yl)acetate] | inhibition of binding of a tau protein aggregate to thioflavin S |
